One test has as its target T1, AQ STING (G230A-R293Q) (Homo sapiens, UniProt Q86WV6, G230A/H232R/R293Q).
T1 construct: truncated human WT STING or AQ STING (amino acid residues 140-343); 8xHis (N, cleaved yes); SUMO (N, cleaved yes); made in house; host or cells: E. coli Rosetta-gami B (DE3)
The test can be described thus: Differential Scanning Fluorimetry with AQ STING. Format: binding. The note with it: thermal shift, truncated human AQ STING 0.1 mg/ml, 150 μM CDN; for ΔTm at 150 µM: read-out: DSF ΔTm AQ STING. The protocol:
(§1) Purified PCR products were cleaved with restriction enzymes BamHI (cat. #R0136S, NEB, Ipswich, USA) and NotI (cat. #R0189S, NEB, Ipswich, USA) and cloned into the pSUMO vector linearized with the identical enzymes.
(§2) DNase I (cat. #D5025, Sigma Aldrich, Czech Republic) and RNase A (cat. #R6513, Sigma Aldrich, Czech Republic) were added (final concentration 50 μg/ml) together with MgCl2 (final concentration 5 mmol·l^−1) to the homogenate and bacteria were lysed using French Press G-M™ High-Pressure Cell Press Homogenizer (1500 psi, 3 cycles). […] The resin was poured into a chromatography column, washed with 50 ml buffer A (50 mmol·l^−1 TrisCl (pH 8.0), 800 mmol·l^−1 NaCl, 3 mmol·l^−1 β-mercaptoethanol; 10% glycerol; 20 mmol·l^−1 imidazole) and 8-His-SUMO tagged STING proteins were eluted with 15 ml buffer A containing 300 mmol·l^−1 imidazole. […] Proteins were concentrated with Amicon® Ultra-15 10 K device (cat. #UFC901008, Merck Millipore, Billerica, USA) and flash frozen in liquid N2.
(§3) 20 μL solutions of the reaction mixtures were pipetted in triplicates into 96 well optical reaction plates and thermal denaturation of samples were performed on real time PCR cycler (LightCycler® 480 Instrument II—Roche, Basel, Switzerland). The first derivative of the thermal denaturation curves was performed to calculate denaturing temperatures of STING-CDN complexes and STING apoproteins. The thermal shift for each CDN was calculated by subtracting the average denaturing temperature of STING apoprotein from the average denaturing temperature of STING CDN complex.
For orientation: Differential scanning fluorimetry follows unfolding on heating by fluorescence.

The target in test [1] is T2, WT STING (Homo sapiens, UniProt Q86WV6, H232R). The test can be described thus: Digitonin assay using 293T wtSTING-FL reporter cells. Format: cell-based. The note with it: 293T wtSTING-FL cells, ISRE firefly luciferase reporter, digitonin buffer 30 minutes, then 5 hours. The text has this:
Two complementary oligonucleotides of the sequence […] […] […] […] […] […] […] The oligonucleotides were mixed in equal molar amounts, hybridized, and cleaved by restriction endonucleases HindIII (cat. #. R0104S, NEB, Ipswich, USA) and BglII (cat. #R0144S, NEB, Ipswich, USA). Ultimately, they were ligated into plasmid pGL4.27 (cat. #E6651, Promega, Madison, USA) linearized with the same enzymes. As result the sequence with four ISRE sites was placed upstream of the minimum promoter of firefly luciferase reporter gene.
After 5 minutes incubation at room temperature (RT), 250 μL of the mixture was added dropwise to the cells in one well. Cells were incubated 36 hours at 37° C. with 5% CO2, and then detached with 0.05% Trypsin and 0.22 g/L EDTA (both cat. #L0941, Biowest, Riverside, USA).
Transfected cells were seeded onto poly-D-lysine coated six well plates at density 50,000 cells per 1 cm^2 in DMEM medium with high glucose containing 10% heat inactivated FBS, 30 μg/mL blasticidin (cat. #ant-bl-05, InvivoGen, San Diego, USA), 0.06 mg/ml Penicillin G and 0.1 mg/ml Streptomycin Sulfate (both cat. #. L0018, Biowest, Riverside, USA). The medium was replenished every 3-4 days until visible colonies of cells resistant to blasticidin were formed.
Blasticidin resistant cells stably expressing WT STING were further transfected with pGL64.27-4×ISRE plasmid following the same procedure as described above. […] Homogeneous culture of stably double transfected cells was prepared by limiting dilution of cells in 96 well plates and wells with cells were selected that originated from a single cell.
The medium was removed next day and three fold serial dilutions of compounds in Digitonin buffer containing 50 mmol·l^−1 HEPES (cat. #H3375, Sigma Aldrich, Czech Republic) pH 7.0, 100 mmol·l^−1 KCl, 3 mmol·l^−1 MgCl2, 0.1 mmol·l^−1 DTT (cat. #D0632, Sigma Aldrich, Czech Republic), 85 mmol·l^−1 Sucrose (cat. #S7903, Sigma Aldrich, Česká Republika), 0.2% BSA (cat. #A2153, Sigma Aldrich, Czech Republic), 1 mmol·l^−1 ATP (cat. #A1852, Sigma Aldrich, Czech Republic), 0.1 mmol·l^−1 GTP (cat. #G8877, Sigma Aldrich, Czech Republic), and 10 μg/mL Digitonin A (cat. #D141, Sigma Aldrich, Czech Republic) were added to the cells. The buffer was removed after 30 minutes incubation at 37° C. with 5% CO2, the cells were washed once with 100 μl of cultivation medium, and 100 μl of medium was added to each well. The plates with cells were incubated for 5 hours at 37° C. with 5% CO2, 50 μl of the medium was removed and 30 μl of ONE-Glo™ Luciferase Assay System reagent (cat. #E6120, Promega, Madison, USA) was added to each well. Luminesce was read on Synergy H1 (Biotek, Winooski, USA).
Target sequence in this assay (Q86WV6 whole entry H232R): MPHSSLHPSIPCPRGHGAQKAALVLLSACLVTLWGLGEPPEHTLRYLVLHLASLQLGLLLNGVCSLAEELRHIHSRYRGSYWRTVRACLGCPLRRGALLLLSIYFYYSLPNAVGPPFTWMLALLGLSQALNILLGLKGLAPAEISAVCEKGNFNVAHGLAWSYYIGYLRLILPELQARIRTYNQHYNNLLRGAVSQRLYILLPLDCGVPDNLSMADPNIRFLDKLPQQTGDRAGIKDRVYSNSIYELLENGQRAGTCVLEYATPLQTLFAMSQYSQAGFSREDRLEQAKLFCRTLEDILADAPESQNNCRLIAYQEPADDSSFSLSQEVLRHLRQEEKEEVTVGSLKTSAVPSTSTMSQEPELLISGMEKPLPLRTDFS
On the technique in general: In a reporter assay the amount or activity of a reporter protein is the signal.

The target in test [2] is T2, WT STING. The test can be described thus: Differential Scanning Fluorimetry with WT STING. Also on record: truncated human WT STING or AQ STING (amino acid residues 140-343); 8xHis (N, cleaved yes); SUMO (N, cleaved yes); made in house; host or cells: E. coli Rosetta-gami B (DE3). The conditions noted are these: thermal shift, truncated human WT STING 0.1 mg/ml, 150 μM CDN; for ΔTm at 150 µM: read-out: DSF ΔTm WT STING. The format is binding. The protocol:
as §1, §2, §3
Target sequence in this assay (Q86WV6 140-343 H232R): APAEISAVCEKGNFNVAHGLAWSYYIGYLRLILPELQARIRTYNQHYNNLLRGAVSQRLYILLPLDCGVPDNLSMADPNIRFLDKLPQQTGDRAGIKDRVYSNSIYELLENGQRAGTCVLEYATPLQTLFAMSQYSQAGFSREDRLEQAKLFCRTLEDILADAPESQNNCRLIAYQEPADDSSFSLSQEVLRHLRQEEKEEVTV

From patent US11292812B2, “3′3′-cyclic dinucleotides” (Institute of Organic Chemistry and Biochemistry, ASCR, V.V.I, priority 2018, dated 2022) come the findings set out here.

Each structure is given as a SMILES string. Bounds are passed on as bounds.

T1 sequence (Q86WV6 140-343 G230A/H232R/R293Q): as the sequence (Q86WV6 140-343 H232R) above, with G91A, R154Q counted along it

`Nc1ncnc2c1ncn2[C@@H]1O[C@@H]2COP(=O)(O)COC3C(O)[C@H](n4cnc5c(N)ncnc54)O[C@@H]3COP(=O)(O)COC2C1O` (stereo partly drawn) [Example 10, (2R,3R,3aR,8aR,10R,11R,11aR,16aR)-2,10-bis(6-amino-9H-purin-9-yl)-3,6,11,14-tetrahydroxvdodecahydrodifuro[3,2-e:3′,2′-l][1,4,8,11]tetraoxa[2,9]diphosphacyclotetradecine 6,14-dioxide]: the “DSF ΔTm AQ STING” value at AQ STING (G230A-R293Q) is −0.2 °C. Moreover, the EC50 on WT STING [1] was over 100000 nM. In addition, the “DSF ΔTm WT STING” value at WT STING [2] worked out at 0.0 °C.
Take `Nc1nc2c(ncn2[C@H]2CC3OCP(=O)(O)OC[C@H]4O[C@@H](n5cnc6c(N)ncnc65)C(F)C4OP(=O)(O)OC[C@H]3O2)c(=O)[nH]1` (stereo partly drawn) [Example 14, 2-amino-9-((2R,3R,3aR,7aR,9R,10aS,15aR)-2-(6-amino-9H-purin-9-yl)-3-fluoro-5,13-dihydroxy-5,13-dioxidodecahydro-2H-difuro[3,2-d:3′,2′-k][1,3,7,10]tetraoxa[2,8]diphosphacyclotridecin-9-yl)-1,9-dihydro-6H-purin-6-one]: the results for the thermal shift (ΔTm) at 150 µM on AQ STING (G230A-R293Q) and on WT STING [2] were 11.2 °C and 3.8 °C, respectively. Also, the EC50 at WT STING [1] stood at 90 nM.
In the same order, the values of `Nc1nc2c(ncn2[C@@H]2O[C@@H]3COP(=O)(O)COC4C(O)[C@H](n5cnc6c(N)ncnc65)O[C@@H]4COP(=O)(O)OC3C2F)c(=O)[nH]1` (stereo partly drawn) [Example 5, 2-amino-9-((2R,3R,3aR,7aR,9R,10R,10aS,15aR)-9-(6-amino-9H-purin-9-yl)-3-fluoro-5,10,13-trihydroxy-5,13-dioxidodecahydro-2H-difuro[3,2-d:3′,2′-k][1,3,7,10]tetraoxa[2,8]diphosphacyclotridecin-2-yl)-1,9-dihydro-6H-purin-6-one] are 12 °C, 4.1 °C and 100 nM.
As for `Nc1ncnc2c1ncn2[C@@H]1O[C@@H]2COP(=O)(O)O[C@H]3[C@@H](O)[C@H](n4cnc5c(N)ncnc54)O[C@@H]3COP(=O)(O)O[C@H]2[C@H]1O` [3′3′-c-di-AMP, reference compound], at AQ STING (G230A-R293Q), the “DSF ΔTm AQ STING” value amounted to 9.3 °C. For the same molecule, the concentration for a half-maximal effect (EC50) at WT STING [1] was 300 nM. The “DSF ΔTm WT STING” value on WT STING [2] amounted to 2.6 °C.
For the molecule `Nc1nc2c(ncn2[C@@H]2O[C@@H]3COP(=O)(O)OC4C(O)[C@H](n5cnc6c(N)ncnc65)O[C@@H]4COP(=O)(O)COC3C2F)c(=O)[nH]1` (stereo partly drawn) [Example 11, 2-amino-9-((2R,3R,3aS,7aR,9R,10R,10aR,15aR)-2-(6-amino-9H-purin-9-yl)-10-fluoro-3,5,13-trihydroxy-5,13-dioxidodecahydro-2H-difuro[3,2-d:3′,2′-k][1,3,7,10][tetraoxa][2,8]diphosphacyclotridecin-9-yl)-1,9-dihydro-6H-purin-6-one], the shift in melting temperature (ΔTm) at 150 µM at AQ STING (G230A-R293Q) was determined as 11.3 °C; on WT STING [2], 7.3 °C. In addition, the EC50 at WT STING [1] was 50 nM.
Take `Nc1nc2c(ncn2[C@@H]2O[C@@H]3COP(=O)(O)OC4C(F)[C@H](n5cnc6c(N)ncnc65)O[C@@H]4COP(=O)(O)COC3C2O)c(=O)[nH]1` (stereo partly drawn) [Example 4, 2-amino-9-((2R,3R,3aR,7aR,9R,10R,10aS,15aR)-2-(6-amino-9H-purin-9-yl)-3-fluoro-5,10,13-trihydroxy-5,13-dioxidodecahydro-2H-difuro[3,2-d:3′,2′-k][1,3,7,10]tetraoxa[2,8]diphosphacyclotridecin-9-yl)-1,9-dihydro-6H-purin-6-one]: the results for the ΔTm at 150 µM on AQ STING (G230A-R293Q) and at WT STING [2] were 13.6 °C and 4.8 °C, respectively. In addition, the concentration for a half-maximal effect (EC50) on WT STING [1] turned out to be 50 nM.
In the same order, the values of `Nc1ncnc2c1ncn2[C@@H]1O[C@@H]2COP(=O)(O)OC3C(F)[C@H](n4cnc5c(N)ncnc54)O[C@@H]3COP(=O)(O)COC2C1F` (stereo partly drawn) [Example 13, (2R,3R,3aR,7aR,9R,10R,10aR,15aR)-2,9-bis(6-amino-9H-purin-9-yl)-3,10-difluoro-5,13-dihydroxydecahydro-2H-difuro[3,2-d:3′,2′-k][1,3,7,10]tetraoxa[2,8]diphosphacyclotridecine 5,13-dioxide] are 16.1 °C, 9.4 °C and 12 nM.
In the same order, the values of `Nc1nc2c(ncn2[C@@H]2O[C@@H]3COP(=O)(O)COC4C(F)[C@H](n5cnc6c(N)ncnc65)O[C@@H]4COP(=O)(O)OC3C2O)c(=O)[nH]1` (stereo partly drawn) [Example 7, 2-amino-9-((2R,3R,3aS,7aR,9R,10R,10aR,15aR)-9-(6-amino-9H-purin-9-yl)-10-fluoro-3,5,13-trihydroxy-5,13-dioxidodecahydro-2H-difuro[3,2-d:3′,2′-k][1,3,7,10]tetraoxa[2,8]diphosphacyclotridecin-2-yl)-1,9-dihydro-6H-purin-6-one] are 15 °C, 5.6 °C and 30 nM.
Turning to `Nc1nc2c(ncn2[C@@H]2O[C@@H]3COP(=O)(O)OC4C(F)[C@H](n5cnc6c(=O)[nH]c(N)nc65)O[C@@H]4COP(=O)(O)COC3C2F)c(=O)[nH]1` (stereo partly drawn) [Example 16, 9,9′-((2R,3R,3aR,7aR,9R,10R,10aR,15aR)-3,10-difluoro-5,13-dihydroxy-5,13-dioxidodecahydro-2H-difuro[3,2-d:3′,2′-k][1,3,7,10]tetraoxa[2,8]diphosphacyclotridecine-2,9-diyl)bis(2-amino-1,9-dihydro-6H-purin-6-one)], the ΔTm at 150 µM at AQ STING (G230A-R293Q) worked out at 10.7 °C; at WT STING [2] it was 3.1 °C. The EC50 at WT STING [1] amounted to 300 nM.
In the same order, the values of `Nc1nc2c(ncn2[C@@H]2O[C@@H]3COP(=O)(O)OC4C(F)[C@H](n5cnc6c(N)ncnc65)O[C@@H]4COP(=O)(O)COC3C2F)c(=O)[nH]1` (stereo partly drawn) [Example 12] are 17.3 °C, 9.3 °C and 20 nM.

What is called EC50 is the concentration that produces a half-maximal response. Usually ΔTm stands for the shift of the melting midpoint relative to a reference.
